# Calls of active or inactive are those of the source.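 Rule for the calls: active = AC50 no more than tenfold above the top dose tested, or full inhibition at every dose with a flat fit (cut at about 19 µM in these data); inconclusive = flat curve fit with inhibition between 30% and 70%, or poor fit; inactive = AC50 more than tenfold above the top dose tested.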
# System: HMLE_sh_eGFP viability, CellTiter-Glo luminescence, 72 h
# Assay: viability loss of HMLE_sh_eGFP cells – cell-based, luminescence, counter-screen for HMLE_sh_ECad selective toxicity project, dose response (AID 463074);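 note: counterscreen control line to flag general toxicity for the HMLE_sh_ECad screen; potency for loss of viability as luminescence drops below DMSO wells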
row,Structure (SMILES),AC50
1,O=S(=O)(c1ccc2ccccc2c1)N1CCN(c2ccc(O)cc2)CC1,8.59 µM
2,COc1ccc(-c2cc(C3CCN(c4ccc(C(C)=O)cc4[N+](=O)[O-])CC3)[nH]n2)cc1,8.83 µM
3,COc1cc2cnc(-c3ccccc3)c(-c3cccc(C(F)(F)F)c3)c2cc1OC,6.67 µM
4,CCCc1ccc(C(=O)NNc2ccc(F)cc2)cc1,1.99 µM
5,O=S(=O)(c1ccc(Cl)cc1)N1CCC(n2cnc3cc(C(F)(F)F)ccc32)CC1,4 µM
6,COc1cccc(C(=O)Nc2ccc(C3CC3(Cl)Cl)cc2)c1 (stereo unspecified),16.4 µM
7,CN1CCN(C2=Cc3cc(Cl)ccc3Sc3cc(F)ccc32)CC1,7.29 µM
8,O=C(NCCc1c[nH]c2ccccc12)C(=O)c1c[nH]c2ccccc12,6.75 µM
9,Cc1sc2nc(SCCN(C)C)n(-c3ccccc3)c(=O)c2c1-c1ccc(F)cc1,10.2 µM
10,O=C(NC(=S)Nc1cccc(Cl)c1N1CCCCC1)c1cccs1,6.92 µM
11,Cc1ccccc1NC(=O)C(Cl)=C(Cl)Cl,7.21 µM
12,COc1ccc(N(C(=O)c2ccccc2C)S(=O)(=O)c2cccs2)cc1,0.231 µM
13,CCOC(=O)/C(=C\c1ccc(Cl)cc1)c1nc2sc(C)c(C)c2c(=O)[nH]1,1.54 µM
14,O=[N+]([O-])c1cccnc1N1CCC(c2cc(-c3cccc(C(F)(F)F)c3)n[nH]2)CC1,3.56 µM
15,CCCCOC(=O)c1c(C)oc2ccc(NS(=O)(=O)c3ccc4c5c(cccc35)C(=O)N4)cc12,9.12 µM
16,Cc1ccc(NC(=O)c2nc[nH]c2C(=O)NCCCNC(=O)c2[nH]cnc2C(=O)Nc2ccc(C)cc2)cc1,3.86 µM
17,C=C1CCN([C@@H](CC(C)C)C(=O)Nc2nc3ccc(Cl)cc3s2)S(=O)(=O)c2ccccc21,14.5 µM
18,CCc1c(C2(O)CCCCC2)[nH]c2cc(C(F)(F)F)ccc12,3.15 µM
19,Cc1cc(=O)[nH]c(N/N=C/c2ccccn2)n1,1.53 µM
20,CCOc1cc(CNc2ccc(Br)cc2)cc(Br)c1OCC(=O)NC(C)(C)C,6.32 µM
21,Cc1c(C(=O)N(Cc2ccccc2)Cc2cccs2)cnn1-c1ccc(Cl)cc1,1.42 µM
22,COc1cc2c(cc1NC(=O)c1cccc(S(=O)(=O)N(C)C)c1)oc1ccccc12,3.52 µM
23,Nc1c(C(O)(C(F)(F)F)C(F)(F)F)cc(C(O)(C(F)(F)F)C(F)(F)F)c2ccccc12,3.95 µM
24,CSc1ccccc1C(=O)Nc1cc(C)ccc1C,> 19.5 µM (inactive)
25,COc1ccccc1CNC(=S)Nc1ccc2nc(N3CCN(C)CC3)cc(C)c2c1,0.427 µM
26,Cc1ccc2sc(N(CCCN(C)C)C(=O)c3ccc(S(=O)(=O)N(C)C4CCCCC4)cc3)nc2c1C,3.63 µM

row,Structure (SMILES),AC50
1,COc1cccc(-c2sc3ccc(OC)cc3c2C#CCCO)c1,8.26 µM
2,Cc1ccc2nc(-c3cccc(NS(C)(=O)=O)c3)cc(-c3ccccc3)c2c1,5.53 µM
3,CCN(CC)CCNc1ncnc2c1sc1nc(N3CCOCC3)c3c(c12)CC(C)(C)SC3,6.99 µM
4,COc1cc(-c2noc(C)c2C#Cc2ccccn2)cc(OC)c1OC,1.16 µM
5,O=C(N/N=C/c1cccc(O)c1)c1ccc(COc2ccccc2Br)cc1,6.42 µM
6,CCCCCCSc1ccc([C@H]2N[C@@](C)(C(=O)OC)[C@H]3C(=O)N(CC)C(=O)[C@@H]23)cc1,19.8 µM
7,Cc1nn(-c2nc3ccccc3s2)c(C)c1Oc1ccccc1O,5.71 µM
8,COc1cc(/C=N/O)cc(Br)c1OCc1cccc(Cl)c1,6.68 µM
9,CC(C)c1ccc(N2C(=O)NC(=O)/C(=C/C=C/c3ccco3)C2=O)cc1,2.29 µM
10,CCCCNC(=S)N(C)/N=C/c1ccc2c(c1)OCO2,16.3 µM
11,COc1ccccc1C(CCNCc1ccc(N(C)C)cc1)c1ccc(OC(C)C)cc1 (stereo unspecified),3.58 µM
12,COc1ccc(C2NCCc3c2[nH]c2ccccc32)cc1COc1ccc(F)cc1 (stereo unspecified),7.34 µM
13,CCN(Cc1ccccc1)c1ccc(/C=N/N=C(N)N)cc1,3.16 µM
14,CN(C)CCNc1nc2sc3c(c2c(=O)n1-c1ccccc1)CCCCC3,3.22 µM
15,CC(C)C1C(c2ccccc2)N(C)C(c2ccccc2)CC1(O)c1ccccc1 (stereo unspecified),3.35 µM
16,C=C(Br)Cn1c(CCCC)nc2ccccc21,0.645 µM
17,COc1ccccc1C1=NOC(COc2ccc3c(C)cc(=O)oc3c2)C1 (stereo unspecified),0.288 µM
18,C=C1[C@@H](O)[C@@H]2O[C@]3(CC[C@H](/C=C/[C@@H](C)[C@@H]4CC(C)=CC5(O[C@H](C[C@@](C)(O)C(=O)OC)CC[C@H]5O)O4)O3)CC[C@H]2O[C@@H]1[C@@H](O)C[C@H](C)[C@H]1OC2(CCCCO2)CC[C@H]1C (stereo partly specified),< 0.16 µM
19,COC(=O)c1c(NC(=O)c2ccccc2)sc2c1CC(C)(C)OC2,> 19.5 µM (inactive)
20,CC(C)c1nc2sc3ccccc3c(=O)c2c(=O)n1Cc1ccccc1,6.29 µM
21,O=[N+]([O-])c1ccccc1-c1ccc(C(=S)N2CCN(c3ccccc3)CC2)o1,> 19.5 µM (inactive)
22,Cc1cccc2c1NC(=O)/C2=C\C(=O)c1cccs1,6.66 µM
23,S=C(Nc1ccccc1)Nc1nc2ccccc2n1CCOc1ccc(Br)cc1,14 µM
24,O=C(Nc1ccncc1)c1cc(-c2cccc(Br)c2)nc2ccccc12,5.99 µM
25,Cc1ccc(NNC(=O)c2cccs2)cc1Cl,2.19 µM

# From PubChem BioAssay AID463074 (Broad Institute, 2010)
